According to patent US11351138B2, “Composition for use in the treatment of epilepsy” (VITAFLO INTERNATIONAL LTD, priority 2017, dated 2022):
Entries after “also recorded” stand apart in the source; their conditions may differ.

Key:
SH-SY5Y cells [1] = experiment: Cell viability, Trypan Blue exclusion test; type: cell-based; details: 50 μM etomoxir, 20 h + 6 h; data not shown
Experimental: Cells were incubated for 20 h at 37° C. and 5% CO2 with 50 μM etomoxir in DMEM media supplemented with 10% FBS, and then a further 6 h at 37° C. with 50 μM etomoxir in DMEM media without FBS. Cells were then lifted from wells with 1 ml 0.25% trypsin-EDTA, suspended in 4 ml culture medium and centrifuged for 4 minutes at 500×g. Supernatant was removed and cells suspended in 1 ml of fresh culture medium. Viability of cells was then tested using the Trypan Blue exclusion test.

GluA2/3 AMPA receptors [2] = target: T1, GluA2/3 AMPA receptors (Homo sapiens, UniProt P42262+P42263); details: Chang et al., Brain 2016; cited from earlier work
T1 construct: expressed in transfected cells; host or cells: Xenopus laevis oocytes injected with in vitro transcribed cRNA (GluA2 and GluA3, nominal 1:1)
T1 sequence (P42262 25-883 isoform P42262-2 limits assumed): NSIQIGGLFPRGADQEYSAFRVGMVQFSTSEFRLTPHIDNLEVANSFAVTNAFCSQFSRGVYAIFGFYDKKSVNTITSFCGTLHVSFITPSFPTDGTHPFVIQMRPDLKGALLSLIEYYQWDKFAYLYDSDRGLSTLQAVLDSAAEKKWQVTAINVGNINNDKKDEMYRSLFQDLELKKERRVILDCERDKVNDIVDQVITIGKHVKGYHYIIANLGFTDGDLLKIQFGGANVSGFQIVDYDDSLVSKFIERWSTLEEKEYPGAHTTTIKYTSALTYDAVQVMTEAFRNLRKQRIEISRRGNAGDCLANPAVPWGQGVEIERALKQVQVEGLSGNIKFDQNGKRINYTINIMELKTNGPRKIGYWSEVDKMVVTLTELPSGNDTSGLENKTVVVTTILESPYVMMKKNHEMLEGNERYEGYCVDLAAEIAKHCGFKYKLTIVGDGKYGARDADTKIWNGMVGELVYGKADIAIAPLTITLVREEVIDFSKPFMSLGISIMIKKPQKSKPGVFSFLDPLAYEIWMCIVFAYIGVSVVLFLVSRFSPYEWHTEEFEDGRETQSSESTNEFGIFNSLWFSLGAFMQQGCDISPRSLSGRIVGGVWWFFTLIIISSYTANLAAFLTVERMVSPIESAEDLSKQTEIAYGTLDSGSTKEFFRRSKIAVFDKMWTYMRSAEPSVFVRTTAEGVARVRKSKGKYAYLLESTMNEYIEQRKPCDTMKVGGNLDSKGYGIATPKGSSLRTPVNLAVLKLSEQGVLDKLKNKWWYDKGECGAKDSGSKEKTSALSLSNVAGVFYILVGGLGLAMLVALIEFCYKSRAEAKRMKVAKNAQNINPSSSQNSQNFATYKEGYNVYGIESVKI
T1 sequence (P42263 29-894 isoform P42263-2 limits assumed): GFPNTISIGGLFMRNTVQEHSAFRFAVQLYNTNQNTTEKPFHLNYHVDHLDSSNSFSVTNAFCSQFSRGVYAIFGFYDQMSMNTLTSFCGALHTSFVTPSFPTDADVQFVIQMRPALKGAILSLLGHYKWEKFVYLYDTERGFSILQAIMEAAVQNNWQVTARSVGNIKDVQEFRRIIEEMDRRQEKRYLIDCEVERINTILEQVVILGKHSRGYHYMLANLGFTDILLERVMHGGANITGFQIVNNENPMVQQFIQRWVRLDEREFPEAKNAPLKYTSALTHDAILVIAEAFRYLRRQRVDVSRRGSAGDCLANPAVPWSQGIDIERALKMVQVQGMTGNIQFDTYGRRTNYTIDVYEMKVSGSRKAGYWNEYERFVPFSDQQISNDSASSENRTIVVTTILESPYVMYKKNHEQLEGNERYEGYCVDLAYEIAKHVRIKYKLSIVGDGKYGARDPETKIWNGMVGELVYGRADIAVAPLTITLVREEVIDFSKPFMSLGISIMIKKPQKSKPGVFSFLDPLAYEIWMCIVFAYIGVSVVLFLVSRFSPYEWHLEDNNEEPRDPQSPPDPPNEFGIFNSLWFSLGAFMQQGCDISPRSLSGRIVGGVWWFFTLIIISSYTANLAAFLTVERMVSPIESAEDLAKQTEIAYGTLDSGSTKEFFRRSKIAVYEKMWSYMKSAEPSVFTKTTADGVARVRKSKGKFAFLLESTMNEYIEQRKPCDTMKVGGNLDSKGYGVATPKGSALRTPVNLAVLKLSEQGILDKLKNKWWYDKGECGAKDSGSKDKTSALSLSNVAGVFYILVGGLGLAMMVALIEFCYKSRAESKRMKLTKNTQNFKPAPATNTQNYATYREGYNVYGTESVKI

[3] = clinically relevant concentrations, in vitro and in vivo; cited from earlier work
[4] = cited from earlier work
SH-SY5Y cells [5] = experiment: CPT1 inhibition assay (etomoxir), oxidation rates in SH-SY5Y cells; type: cell-based; details: for Oxidation rate +Etomoxir / Oxidation rate −Etomoxir: 250 μM substrate, mean±SEM; for Oxidation rate +Etomoxir: 50 μM etomoxir; for Oxidation rate −Etomoxir: without etomoxir
Experimental: C16:BSA complex (5:1 molar ratio fatty acid:BSA). […] Both solutions were aliquoted and stored at −20° C. until further use.
A stock solution of 50 mM etomoxir was prepared in sterile cell culture grade water and stored in aliquots at −20° C. On day 5 of culture, growth medium was replaced with 2 ml DMEM formula containing 3 mM D-glucose and 10% FBS. Cells were incubated with or without the presence of 50 μM etomoxir, for 20 h at 37° C. and 5% CO2. […] C8 or [U-^13C] C16:BSA, with 50 μM etomoxir also added to previously exposed cells. Wells were then sealed with heavy mineral oil, with cells incubated and media sampled as previously described.
Samples were thawed at room temperature and 100 μl 1M hydrochloric acid was injected through the septum into each vial to release CO2 from the media. Vials were centrifuged for 30 seconds at 500×g. Samples were then analysed on a GasBench II coupled to a Thermo Delta-XP isotope-ratio mass spectrometer.

GluA2/3 AMPA receptors [6] = target: T1, GluA2/3 AMPA receptors; experiment: AMPA receptor (GluA2/3) currents in Xenopus oocytes, two-electrode voltage clamp; type: cell-based; details: GluA2/3 in oocytes, 100 uM glutamate, total medium chain fatty acid content 1 mM
Experimental: The AMPA receptor (flip isoform) cDNAs inserted in a SP6 polymerase expression vector (pSP6T) were a gift from Prof Ralf Schoepfer (NPP, UCL). RNA was transcribed in vitro from Miu I linearised transcripts using the SP6 Promega RiboMax RNA synthesis kit (Madison, Wis.) according to manufacturers protocols except for the addition of 0.75 mM capping nucleotide m7G(5′)ppp(5′)G (Promega, Madison, Wis.) and 1.6 mM GTP. cRNA concentrations and integrity were estimated by the intensity of fluorescence bands in RNA denaturating gels. AMPA receptor cRNAs were mixed in a nominal 1:1 ratio and approximately 5 ng was injected per oocyte.
Xenopus laevis oocytes were purchased from the European Xenopus Resource Centre, University of Portsmouth. Stage V to VI oocytes were mechanically dissected and then subjected to gentle shaking for approximately 30-50 min at room temperature with modified Barth's solution (in mM): NaCl 88, KCl 1, NaHCO32.4, MgCb 0.82, CaCl2) 0.77, Tris-Cl 15, adjusted to pH 7.4 with NaOH (Sigma-Aldrich, UK), supplemented with 50 IU/ml penicillin and 50 μg/ml streptomycin (Invitrogen, UK) and 50 μg/ml tetracycline (Sigma-Aldrich, UK) and 1% collagenase (type 1A). […]

SH-SY5Y cells [7] = experiment: C10 and C8 co-incubation, C10 oxidation in SH-SY5Y cells; type: cell-based; details: 250 μM [1-13C]C10 plus 62.5 μM unlabelled C8
Experimental: The effects of co-incubating C10 and C8 on C10 oxidation in SH-SY5Y cells were also explored. Additional stock solutions of 25 mM C8 and 100 mM [1-^13C]C10 were prepared in DMSO, sterile-filtered and stored in aliquots at −20° C. Cells were cultured and incubated for 20 h in 10% FBS-supplemented DMEM media containing 3 mM D-glucose, as previously described. Media was then removed and cells washed. Media was then replaced with 3 ml DMEM containing either 3 mM [U-^13C]glucose and vehicle control DMSO, or 3 mM unlabelled D-glucose. In each D-glucose-supplemented well, cells were treated with either a final concentration of 250 μM [1-^13C] C10, or 250 μM [1-^13C]C10 plus 62.5 μM C8, at a fixed total volume. Wells were then sealed with heavy mineral oil, cells incubated and media sampled as previously outlined.
Samples were thawed at room temperature and 100 μl 1M hydrochloric acid was injected through the septum into each vial to release CO2 from the media. Vials were centrifuged for 30 seconds at 500×g. Samples were then analysed on a GasBench II coupled to a Thermo Delta-XP isotope-ratio mass spectrometer. Ten repeat injections were carried out per sample, with d^13C/^12C ratios measured against Vienna Pee Dee Belemnite (VPDB) using a calibrated CO2 reference gas. ^13CO2/^12CO2 ratios were converted to mole percent excess using absolute molar ratio of ^13C to ^12C (0.0111796) in VPDB. […]

SH-SY5Y cells [8] = type: cell-based; details: human, 6 h, 250 μM
Experimental: SH-SY5Y cells were utilised between passages 20-24 for all experimental procedures. Cells were cultured in 1:1 Dulbecco's Modified Eagle's Medium (DMEM)/F12 media, containing 17.5 mM glucose and supplemented with 100 ml/L heat-inactivated foetal bovine serum (FBS) and 10 ml/L 200 mM L-glutamine. All cells were maintained in a humidified atmosphere at 37° C. and 5% CO2. Cells were sub-cultured by washing with 10 ml/flask Mg^2+1c a ^2+-free Dulbecco's phosphate-buffered saline (DPBS), lifted with 2 ml 0.25% trypsin-EDTA and suspended in 8 ml culture medium to inactivate the trypsin. The cell suspension was transferred to a falcon tube and centrifuged for 4 minutes at 500×g. The supernatant was removed and cells suspended in a known volume of fresh culture medium. Cells were counted using the Trypan Blue exclusion test for viability. A known volume of the cell suspension was mixed 1:1 with 0.4% Trypan Blue solution and counted with a Bio-Rad TC20™ Automated Cell Counter (Hemel Hempstead, UK). […]
Samples were thawed at room temperature and 100 μl 1M hydrochloric acid was injected through the septum into each vial to release CO2 from the media. […] Samples were then analysed on a GasBench II coupled to a Thermo Delta-XP isotope-ratio mass spectrometer. […]

[9] = animal models; cited from earlier work

Row | reduction of oxidation in the presence of etomoxir (SH-SY5Y cells [5]; human, 6 h, 250 μM) [%] | Oxidation rate +Etomoxir (SH-SY5Y cells [5]) [nmol/h] | Oxidation rate −Etomoxir (SH-SY5Y cells [5]) [nmol/h] | Compound | effect on AMPA receptors / AMPA receptor currents (GluA2/3 AMPA receptors [2]) | anti-seizure effects [3] | concentration in peripheral blood (average) [4] | concentration in peripheral blood (range) [4] [µM] | also measured
1 | – | – | – | CCOC(=O)[C@@]1(CCCCCCOc2ccc(Cl)cc2)CO1 [etomoxir] | – | – | – | – | effect on viability of SH-SY5Y cells (SH-SY5Y cells [1]): no effect on viability
2 | 34 | – | – | CCCCCCCC(=O)O [octanoic acid, Octanoic acid] | no effect on AMPA receptor currents | not | around 306 μM | 104 to 859 | –
3 | – | 0.75 ± 0.06 | 1.14 ± 0.11 | CCCCCCC[13C](=O)O [[1-^13C]C8, [1^13C]octanoic acid] | – | – | – | – | –
4 | – | 0.002 ± 0.003 | 0.22 ± 0.05 | [13CH3][13CH2][13CH2][13CH2][13CH2][13CH2][13CH2][13CH2][13CH2][13CH2][13CH2][13CH2][13CH2][13CH2][13CH2][13C](=O)O [[U-^13C]C16, [U-^13C]palmitic acid, reference compound] | – | – | – | – | reduction of oxidation in the presence of etomoxir (SH-SY5Y cells [5]; 50 μM etomoxir (CPT1 inhibition)): 99%
5 | 95 | – | – | CCCCCCCCCC(=O)O [decanoic acid, Decanoic acid] | inhibits AMPA receptors | acute antiseizure effects; also recorded: has anti-seizure effects | 157 µM | 87 to 552 | inhibition of AMPA receptor currents by decanoic acid:octanoic acid ratios (GluA2/3 AMPA receptors [6]): no increase in AMPA receptor inhibition; impairment of oxidation rate of C10 by C8 addition (SH-SY5Y cells [7]): 29%; C10 oxidation lower than that of C8 by (SH-SY5Y cells [8]): approximately 80%; ratio in blood plasma to brain [9]: around 0.7
